# Assay results: patent publication US20250351832A1, “PHYTOCHEMICALS AS BIOPESTICIDES AND BIOSTIMULANTS” (KAY BEE BIO ORGANICS PVT. LTD., priority 2024, published 2025)
# Where two headings read alike, the source gives them in different places.
# Columns and labels:
# [1] = system: Alternaria alternata; assay: Alternaria leaf spot/blight on inoculated tomato plants (Ex. 28); type: in vivo; settings: tomato plants, Alternaria alternata; after 7 days; dose 1 ml/gm/lit
# [2] = system: Spodoptera litura; settings: Spodoptera litura on castor leaves; dose 1 ml/gm/lit.; 10 insects/treatment; 72 hrs after application
# [3] = system: Mealy Bug; settings: mealy bug on cotton plants, green house, dose 1 ml/gm/lit. spray; for % Mortality at 48 Hrs. / Total No. of dead insect at 48 Hrs.: 48 hrs after application; for % Corrected Mortality at 48 Hrs.: corrected for water control
# [4] = system: Spodoptera litura; settings: Spodoptera litura 3rd instar on cabbage plants, dose 1 ml/gm/lit. spray; for % Mortality at 72 Hrs.: 72 hrs after application; for % Corrected Mortality at 72 Hrs.: corrected for water control
# [5] = system: Mealy Bug; settings: Mealy Bug on cotton leaves, dose 1 ml/gm/lit., 48 Hrs.; for Total No. of dead insect at 48 Hrs.: 10 insects/treatment, 4 replications; for % Corrected Mortality at 48 Hrs.: corrected for water control
# [6] = system: Thrips; settings: thrips on cotton plants, greenhouse, dose 1 ml/gm/lit. spray; for % Mortality at 48 Hrs. / Total No. of dead insect at 48 Hrs.: 48 hrs after application; for % Corrected Mortality at 48 Hrs.: corrected for water control
# [7] = system: Helicoverpa armigera; settings: Helicoverpa armigera on okra fruits, dose 1 ml/gm/lit., 72 Hrs.; for Total No. of dead insect at 72 Hrs.: 10 insects/treatment, 4 replications; for % Corrected Mortality at 72 Hrs.: corrected for water control
# [8] = system: Mite; settings: mite on okra plants, green house, dose 1 ml/gm/lit. spray; for % Mortality at 48 Hrs. / Total No. of dead insect at 48 Hrs.: 48 hrs after application; for % Corrected Mortality at 48 Hrs.: corrected for water control
# [9] = cited from earlier work; for Phytotonic Effect: Table 13, effect on plants, descriptive
# [10] = system: Thrips; settings: Thrips on cotton leaves; dose 1 ml/gm/lit.; 10 insects/treatment; 48 hrs after application
# [11] = system: Alternaria alternata; assay: In vitro poisoned food technique against fungus (Ex. 20); type: cell-based
# [12] = system: chili seedlings; assay: Response of chili plants, greenhouse growth (Ex. 31); type: in vivo; settings: chili seedlings, dose 1 ml/gm/lit; for CCI 5th Day / Plant Height (cm) 5th Day: 5th day after application; for CCI 10th Day / Plant Height (cm) 10th Day: 10th day after application; for CCI % Increase over pre on 10th Day / Plant Height % Increase over pre on 10th Day / Root Lenght (cm) 10th Day / Stem Girth % Increase over pre on 10th Day / Root Lenght % Increase over control: 10th day; for Root Lenght % Increase over control: vs water control
# [13] = system: Aphid; settings: Aphids on cotton plants, green house; dose 1 ml/gm/lit.; 10 insects/plant, 10 plants/treatment; 48 hrs
# [14] = system: Thrips; assay: whole plant or invertebrate; settings: in Gossypium hirsutum, 48 h
# [15] = system: Mite; settings: Dose 1 ml/gm/lit.; for Total No. of dead insect at 48 Hrs.: 10 insects/treatment, 4 replications, okra leaves
# [16] = system: Aphid; settings: Dose 1 ml/gm/lit.; for Total No. of dead insect at 48 Hrs.: 10 insects/treatment, 4 replications, cotton leaves
# [17] = system: tomato seedlings; assay: Response of tomato plants, greenhouse growth (Ex. 30); type: in vivo; settings: tomato seedlings, dose 1 ml/gm/lit; for Plant Height 5th Day / Stem Girth 5th Day / CCI 5th Day: 5th day after application; for Plant Height 10th Day / Stem Girth 10th Day / CCI 10th Day: 10th day after application; for Plant Height % Increase over pre on 10th Day / Stem Girth % Increase over pre on 10th Day / CCI % Increase over pre on 10th Day / Root Length (cm) 10th Day / Root Length % Increase over control: 10th day; for Root Length % Increase over control: vs water control
# [18] = system: Helicoverpa armigera; settings: Helicoverpa armigera 3rd instar on chickpea plants, dose 1 ml/gm/lit. spray; for % Mortality at 72 Hrs.: 72 hrs after application; for % Corrected Mortality at 72 Hrs.: corrected for water control
# [19] = system: Spodoptera litura; assay: whole plant or invertebrate; settings: 72 h
# [20] = system: Aphid; assay: whole plant or invertebrate; settings: 48 h
# [21] = Table 13, descriptive, no test described
# [22] = poisoned food technique, PDA medium, dose 1 ml/gm/lit., after seven days
# [23] = read-out: % Corrected Mortality at 48 Hrs.
# [24] = read-out: % Mortality at 48 Hrs.
# [25] = read-out: % Corrected Mortality at 72 Hrs.
# [26] = read-out: % Mortality at 72 Hrs.
compound,measurement,setting,value
CCCCCCCCCCCCCCCC(=O)O [Palmitic acid],% Disease reduction over Control,[1],50.41%
same,Total No. of dead insect at 72 Hrs.,[2],2.50
same,% Mortality at 48 Hrs.,[3],55.00%
same,Total No. of dead insect at 48 Hrs.,[3],55.00
same,% Corrected Mortality at 48 Hrs.,[3],50.00%
same,% Mortality at 72 Hrs.,[4],27.50%
same,% Corrected Mortality at 72 Hrs.,[4],23.68%
same,Total No. of dead insect at 48 Hrs.,[5],6.50
same,% Mortality at 48 Hrs.,[5],65.00%
same,% Corrected Mortality at 48 Hrs.,[5],63.16%
same,% Mortality at 48 Hrs.,[6],40.00%
same,Total No. of dead insect at 48 Hrs.,[6],40.00
same,% Corrected Mortality at 48 Hrs.,[6],33.33%
same,Total No. of dead insect at 72 Hrs.,[7],4.50
same,% Mortality at 72 Hrs.,[7],45.00%
same,% Corrected Mortality at 72 Hrs.,[7],45.00%
same,% Mortality at 48 Hrs.,[8],45.00%
same,Total No. of dead insect at 48 Hrs.,[8],45.00
same,% Corrected Mortality at 48 Hrs.,[8],42.11%
same,Acaricidal Activity - Mode of action,[9]; [21],Exhibited potent acaricidal
same,Antifungal Activity - Mode of action,[9]; [21],Strongest antifungal
same,Bactericidal Activity - Mode of action,[9]; [21],Destroyed or disintegrated
same,Nematicidal Activity - Mode of action,[9]; [21],Repelling nematodes
same,Phytotonic Effect,[9],Optimize soil
same,Total No. of dead insect at 48 Hrs.,[10],4.25
same,inhibition of growth at 1 mL or g/L,[11]; […],34.1%
same,Mean colony Diameter (mm),[11]; [22],58.00 mm
same,CCI 5th Day,[12],13.04
same,Plant Height (cm) 5th Day,[12],6.30 cm
same,CCI % Increase over pre on 10th Day,[12],56.37%
same,Plant Height % Increase over pre on 10th Day,[12],68.98%
same,Root Lenght (cm) 10th Day,[12],4.41 cm
same,Stem Girth % Increase over pre on 10th Day,[12],58.78%
same,CCI 10th Day,[12],15.95
same,Plant Height (cm) 10th Day,[12],7.3 cm
same,Root Lenght % Increase over control,[12],61.00%
same,Total No. of dead insect at 48 Hrs.,[13],70.00
same,mortality at 1 mL or g/L,[14]; [23],34.3%
same,mortality at 1 mL or g/L,[14]; [24],42.5%
same,Total No. of dead insect at 48 Hrs.,[15],4.25
same,% Corrected Mortality at 48 Hrs.,[15],37.84%
same,% Mortality at 48 Hrs.,[15],42.50%
same,Total No. of dead insect at 48 Hrs.,[16],6.00
same,% Corrected Mortality at 48 Hrs.,[16]; 48 hrs,54.29%
same,% Mortality at 48 Hrs.,[16]; 48 hrs,60.00%
same,Plant Height 5th Day,[17],7.14 cm
same,Stem Girth 5th Day,[17],1.79 mm
same,Plant Height 10th Day,[17],8.54 cm
same,Stem Girth 10th Day,[17],2.32 mm
same,Plant Height % Increase over pre on 10th Day,[17],41.16%
same,Stem Girth % Increase over pre on 10th Day,[17],76.92%
same,CCI 5th Day,[17],13.26
same,CCI % Increase over pre on 10th Day,[17],33.42%
same,Root Length (cm) 10th Day,[17],4.95 cm
same,CCI 10th Day,[17],14.89
same,Root Length % Increase over control,[17],48.91%
same,% Mortality at 72 Hrs.,[18],40.00%
same,% Corrected Mortality at 72 Hrs.,[18],40.00%
same,mortality at 1 mL or g/L,[19]; [25],21.1%
same,mortality at 1 mL or g/L,[19]; [26],25%
same,mortality at 1 mL or g/L,[20]; [23],64.7%
same,mortality at 1 mL or g/L,[20]; [24],70%
O=C(/C=C/C=C/c1ccc2c(c1)OCO2)N1CCCCC1 [Piperine],% Disease reduction over Control,[1],53.72%
same,Total No. of dead insect at 72 Hrs.,[2],7.25
same,% Mortality at 48 Hrs.,[3],57.50%
same,Total No. of dead insect at 48 Hrs.,[3],57.50
same,% Corrected Mortality at 48 Hrs.,[3],52.78%
same,% Mortality at 72 Hrs.,[4],70.00%
same,% Corrected Mortality at 72 Hrs.,[4],68.42%
same,Total No. of dead insect at 48 Hrs.,[5],5.25
same,% Mortality at 48 Hrs.,[5],52.50%
same,% Corrected Mortality at 48 Hrs.,[5],50.00%
same,% Mortality at 48 Hrs.,[6],32.50%
same,Total No. of dead insect at 48 Hrs.,[6],32.50
same,% Corrected Mortality at 48 Hrs.,[6],25.00%
same,Total No. of dead insect at 72 Hrs.,[7],7.00
same,% Mortality at 72 Hrs.,[7],70.00%
same,% Corrected Mortality at 72 Hrs.,[7],70.00%
same,% Mortality at 48 Hrs.,[8],60.00%
same,Total No. of dead insect at 48 Hrs.,[8],60.00
same,% Corrected Mortality at 48 Hrs.,[8],57.89%
same,Acaricidal Activity - Mode of action,[9]; [21],Cause dehydration of mites
same,Antifungal Activity - Mode of action,[9]; [21],Inhibition of the fungal
same,Phytotonic Effect,[9],Boost plant
same,Total No. of dead insect at 48 Hrs.,[10],4.00
same,Mean colony Diameter (mm),[11]; [22],52.00 mm
same,inhibition of growth at 1 mL or g/L,"[11]; poisoned food technique, PDA medium, dose 1 ml/gm/lit., after seven days, vs untreated control, read-out: % Inhibition of growth",40.9%
same,CCI 5th Day,[12],13.30
same,Plant Height (cm) 5th Day,[12],6.30 cm
same,CCI % Increase over pre on 10th Day,[12],38.67%
same,Plant Height % Increase over pre on 10th Day,[12],54.78%
same,Root Lenght (cm) 10th Day,[12],3.25 cm
same,Stem Girth % Increase over pre on 10th Day,[12],39.49%
same,CCI 10th Day,[12],14.2
same,Plant Height (cm) 10th Day,[12],7.12 cm
same,Root Lenght % Increase over control,[12],18.81%
same,Total No. of dead insect at 48 Hrs.,[13],70.00
same,mortality at 1 mL or g/L,[14]; [23],31.4%
same,mortality at 1 mL or g/L,[14]; [24],40%
same,Total No. of dead insect at 48 Hrs.,[15],6.25
same,% Corrected Mortality at 48 Hrs.,[15],59.46%
same,% Mortality at 48 Hrs.,[15],62.50%
same,Total No. of dead insect at 48 Hrs.,[16],7.00
same,% Corrected Mortality at 48 Hrs.,[16]; 48 hrs,65.71%
same,Plant Height 5th Day,[17],6.41 cm
same,Stem Girth 5th Day,[17],1.80 mm
same,Plant Height 10th Day,[17],7.02 cm
same,Stem Girth 10th Day,[17],2.24 mm
same,Plant Height % Increase over pre on 10th Day,[17],30.48%
same,Stem Girth % Increase over pre on 10th Day,[17],57.52%
same,CCI 5th Day,[17],13.89
same,CCI % Increase over pre on 10th Day,[17],20.71%
same,Root Length (cm) 10th Day,[17],3.93 cm
same,CCI 10th Day,[17],14.63
same,Root Length % Increase over control,[17],18.18%
same,% Mortality at 72 Hrs.,[18],67.50%
same,% Corrected Mortality at 72 Hrs.,[18],67.50%
same,mortality at 1 mL or g/L,[19]; [25],71%
same,mortality at 1 mL or g/L,[19]; [26],72.5%
same,mortality at 1 mL or g/L,[20]; [23],64.7%
same,mortality at 1 mL or g/L,[20]; [24],70%
